Values joined by “and” are separate entries in the source; they are usually repeats but may differ in a detail not shown here. Equal entries are not always repeated.

The subject of one assay is Telomeric G4. The assay is described as follows: CD melting (Tm), telomeric G4. It counts as binding. The method, then: (§1) Circular dichroism. Oligomers of WT, G124A, G124/125A, G138/139A and G146A were synthesized and HPSF-purified by MGW Operon, Inc. For CD analysis, oligomers (5 μM) in a buffer containing 10 mM Tris-HCl (pH 7.5) and 140 mM KCl were annealed. For the CD analysis of the complex of oligomers and compounds, oligomers (5 μM) in a buffer containing 10 mM Tris-HCl (pH 7.5) and 5 mM KCl for GTC365 or 1 mM KCl for BRACO-19 were annealed. Oligomers and GTC365 or BRACO-19 were incubated overnight at room temperature. For the full-length of C-rich strand, the oligomer in a buffer of 10 mM Na cacodylate (pH 6.6) was annealed and then incubated with GTC365 overnight. CD analysis was conducted on a Jasco 810 spectropolarimeter (Jasco, Easton, Md.) using a quartz cell with 1 mm of path length, 1 nm of band width, and 1 s of response time for spectra at 20° C. Melting curves for the determination of Tm were obtained by recording ellipticity at 262 nm with increasing temperatures from 25° C. to 95° C. at a rate of 1.6° C./min. Tm of the C-rich strand with GTC365 was obtained from the CD signal at 286 nm within 10-60° C.
(§2) CD and DMS footprinting analyses were conducted to characterize the binding of GTC365 and BRACO-19 to the 5-12 G-quadruplex. […] To verify the effects of compounds on the thermal stability of the WT and the mutant G-quadruplexes, Tms were determined by CD. […] Since acridine derivatives are known to bind to telomeric G-quadruplex, the effects of GTC365 and BRACO-19 on telomeric G-quadruplex stability were compared by CD.
In contrast, BRACO-19 increased the Tm of telomeric G-quadruplex by ˜60% compared to that of the hTERT G-quadruplex at 0.5 and 1 equiv. A summary of the comparative Tms of GTC365 and BRACO-19 in hTERT and telomeric DNA is shown below.

Assay [1] concerns hTERT core promoter (pGL3-WT). The assay is described as follows: Luciferase assay, pGL3-WT in MCF7 cells. Format: cell-based, human. The conditions noted are these: 24 h. How it is done:
(§3) Luciferase assay. From gDNA extracted from HeLa cells, the hTERT core promoter region, including −350 bp to +12 from the transcription start site, was amplified using a pair of primers, including KpnI and NheI restriction sites, for cloning of pGL3-hTERT with WT promoter sequence. Mutant constructs were generated by PCR-based site-directed mutagenesis. The sequence of each construct was confirmed by sequencing analysis. MCF7 cells in 24-well plate were transfected with 200 ng of pGL3 construct and 5 ng of pRL-TK by Fugene® HD Transfection Reagent and then incubated for 6 h. Media were replaced by fresh ones and the cells were treated with GTC365 or BRACO-19. The same volume of DMSO served as a control. […]
(§4) Since MYC is a key transcription factor for activation of the hTERT gene by binding to an E-box in the hTERT promoter region and is one of the oncogenes having a G-quadruplex structure in the promoter region, it was important to confirm that GTC365 affects the repression of hTERT promoter activity directly by binding to the G-quadruplex structure formed in the hTERT promoter and not by binding to the G-quadruplex in the MYC promoter. To distinguish between these possibilities, the luciferase activity of the pGL3-WT and pGL3-E-box mutant constructs were determined after treatment with GTC365. […]

Another assay deals with hTERT mRNA. Briefly: qPCR of hTERT mRNA in MCF7 cells. Format: cell-based, human. The method, then:
qPCR. MCF7 and melanoma cells were treated with GTC365 and BRACO-19 for 72 h. Total RNA was extracted using an RNeasy mini-prep kit (Qiagen) and quantitated by measuring absorbance at 260 nm. cDNA was synthesized using a Takara PrimeScript™ RT Reagent Kit with gDNA eraser and then used as a template for qPCR. The qPCR was performed using Kapa Probe Fast qPCR Master Mix with ABI Taqman probes of hTERT (Hs00972656_m1), BCL2 (HS00608023_m1, FAM-labeled) or MYC (Hs00153408_m1), and GAPDH (Hs02758991_g1, VIC-labeled). The Ct values were measured by running Rotor-Gene Q, and the relative quantity of hTERT, BCL2, and MYC mRNA was obtained compared to GAPDH as an internal control.
BCL2 is a downstream molecule to hTERT such that BCL2 expression is activated by hTERT to repress apoptosis. To further define the effect of GTC365 on the transcription of hTERT, the relative mRNA levels of MYC and BCL2 were determined by quantitative PCR analysis in MCF7 cells after treatment with GTC365 for 72 h. […] A series of GTC260 analogs were synthesized and their effect on hTERT gene expression in MCF7A and U87 cells determined (FIG. 7). […] Therefore, GTC365 directly repressed the transcription of hTERT and then led to a downstream decrease of BCL2 expression.

Assay [2] concerns hTERT WT G4 (5-12 G-quadruplex). Briefly: CD melting (Tm), hTERT WT G4. Format: binding, human. The method, then:
as §1, §2

Assay [3] relates to hTERT core promoter E-box Mut construct. Briefly: Luciferase assay, pGL3-E-box mutant in MCF7 cells. It counts as cell-based, human. The conditions noted are these: 24 h. How it is done:
as §3, §4

As for `CN(C)c1ccc(Nc2c3ccc(NC(=O)CCN4CCCC4)cc3nc3cc(NC(=O)CCN4CCCC4)ccc23)cc1` [BRACO-19, reference compound], the “Tm of telomeric G-quadruplex increased compared to that of the hTERT G-quadruplex” value with Telomeric G4 (0.5 and 1 equiv) is recorded as ~60%. Further, the “increase in Tm (ΔTm)” value stood at 4.24 °C in the assay on Telomeric G4 (0.5 equivalents), 14.6 °C in the assay on Telomeric G4 (1 equivalent), 2.41 °C in assay [2] (0.5 equivalents) and 8.73 °C in assay [2] (1 equivalent). Besides, the luciferase activity entry was “decreased” in assay [1] and “failed to reduce” in assay [3]. In addition, the “effect on hTERT transcription / mRNA level” value with hTERT mRNA is “decreased”.

As to `N=C(N)NCCCS(=O)(=O)Nc1ccc(Nc2c3ccccc3nc3cc([N+](=O)[O-])ccc23)cc1` [GTC365], in the assay with Telomeric G4 (1 and 2 equiv), the “Tm increase of telomeric G-quadruplex less than that of the hTERT G-quadruplex” value is on record as 42%. Moreover, the “increase in Tm (ΔTm)” value with Telomeric G4 (1 equivalent) is 4.4 °C; in the assay with Telomeric G4 (2 equivalents) it was 7.5 °C; in assay [2] (1 equivalent), 6.47 °C; in assay [2] (2 equivalents), 12.9 °C and 12.92 °C. The luciferase activity result in assay [1] and in assay [3] was “dose-dependent decrease” each time. Also, the “effect on hTERT transcription / mRNA level” value in the assay on hTERT mRNA was “significant effect”. For the same molecule, the “decrease of hTERT mRNA level” value in the assay with hTERT mRNA (72 h, 1 μM) is “up to 67%”.

The values are drawn from patent US10556860B2, “hTERT modulators and methods of use” (Arizona Board of Regents on Behalf of the University of …, priority 2015, dated 2020).
